We go through six compounds from PMC5727127, “H3K14ac is linked to methylation of H3K9 by the triple Tudor domain of SETDB1” (Nature Communications, 2017).

One assay addresses T1, SETDB1 3TD W358A (TD3) (Homo sapiens, UniProt Q15047, W358A).
T1 construct: cloned into the pET28a-MHL (residues 190–410), pGEX6P2, and pGEX-4T-1 (residues 197–403) vectors; 6×His; made in house; host or cells: E. coli BL21 derivative (SGC) with pRARE
As to the kind of experiment: ITC binding of 3TD W358A to H3 peptides. The following applies: W358A vs wildtype. The procedure: (§1) ITC experiments were carried out at 25 °C on a VP-ITC calorimeter (MicroCal). Protein and peptide were kept in an identical buffer of 20 mM Tris/HCl pH 7.0 and 150 mM NaCl. ITC measurements were carried out with protein and ligand concentrations ranging from 50 to 100 μM and 1–2 mM, respectively. Binding isotherms were analyzed by nonlinear least-squares fitting of the data using Microcal ORIGIN software (Microcal) using a one-site binding model.

Assay [1] relates to SETDB1 3TD, GST-tagged, wildtype. As to the kind of experiment: Modified histone peptide array binding of 3TD wildtype. The conditions noted are these: GST-tagged 3TD, modified histone peptide arrays. As to the method:
(§2) Experiments to determine the binding specificity of 3TD wildtype and mutants were performed using CelluSpots peptide arrays (MODified Histone Peptide Array, Active Motif), as described previously, in 20 mM HEPES pH 7.5, 100 mM KCl, 1 mM EDTA, 0.2 mM DTT, and 10% glycerol. All peptide array binding studies were conducted at least in two technical repeats. Annotations of all spots are given in Supplementary Table 2. The amounts of GST-fused Tudor proteins used in peptide array binding and western blot analyses ranged from 0.5 to 100 nM. For methylation analysis, MODified Histone Peptide arrays (Active Motif) were incubated with 20 nM SETDB1 in buffer (50 mM Tris/HCl pH 9.0, 4 mM DTT, 5 mM MgCl2) supplemented with 0.38 µM radioactively labeled [methyl-3H]-AdoMet (Perkin Elmer) for 2 h at room temperature. The arrays were then washed 5 times with wash buffer (100 mM NH4HCO3 and 1% SDS), incubated in Amplify NAMP100 (GE Healthcare) for 5 min, and then exposed to Hyperfilm TM ECL high-performance chemiluminescence film (GE Healthcare) in the dark at −80 °C for 1–7 days.

In another assay the test system is SETDB1 3TD W358A. As to the kind of experiment: Modified histone peptide array binding of 3TD W358A. The following applies: W358A vs wildtype. As to the method:
as §2

The next assay deals with SETDB1 3TD Y268A. Kind of assay: Modified histone peptide array binding of 3TD Y268A. The conditions noted are these: Y268A vs wildtype; peptide array and ITC assays. The procedure: as §2
The subject of a further assay is SETDB1 3TD F332A. Kind of assay: Modified histone peptide array binding of 3TD F332A. The following applies: replacement of F332 by alanine; peptide array and ITC. The procedure: as §2
The target of a further assay is T2, SETDB1 3TD Y268A (TD2) (Homo sapiens, UniProt Q15047, Y268A).
T2 construct: cloned into the pET28a-MHL (residues 190–410), pGEX6P2, and pGEX-4T-1 (residues 197–403) vectors; 6×His; made in house; host or cells: E. coli BL21 derivative (SGC) with pRARE
As to the kind of experiment: ITC binding of 3TD Y268A to H3 peptides. The conditions noted are these: Fig. 2c, Y268A relative to wildtype. As to the method:
as §1

Another assay addresses T3, SETDB1 3TD, wildtype (Homo sapiens, UniProt Q15047).
T3 construct: cloned into the pET28a-MHL (residues 190–410), pGEX6P2, and pGEX-4T-1 (residues 197–403) vectors; 6×His; made in house; host or cells: E. coli BL21 derivative (SGC) with pRARE
Kind of assay: NMR chemical shift perturbation binding to 3TD. The following applies: 15N HSQC, 25 °C, pH 7.0, 150 mM NaCl. The procedure: NMR experiments were collected on a Bruker Avance 500-MHz spectrometer equipped with a cryogenic probe. Chemical shift perturbation experiments were carried out using uniformly ^15N-labeled wildtype 3TD protein in 20 mM Tris/HCl pH 7.0 and 150 mM NaCl. ^1H, ^15N HSQC spectra were recorded at 25 °C in the presence of increasing concentrations of histone tail peptides. K d values were calculated by a nonlinear least-squares analysis in Kaleidagraph using the equation Δδ=ΔδmaxcL+cP+Kd-cL+cP+Kd^2-4cLcP∕2cP, where c L is the concentration of the peptide, c P is the concentration of the protein, Δδ is the observed normalized chemical shift change, and Δδ max is the normalized chemical shift change at saturation, calculated as Δδ=ΔδH^2+ΔδN∕5^2, where δ is the chemical shift in p.p.m.
Supplementary Figure 1: Peptide binding of 3TD. (a) Titration of 3TD binding to peptide arrays. Note the specific binding to H3K9me1/2/3-K14ac double modified […]
concentration (100 nM). (b) ITC analysis of 3TD binding to single modified H3 tail […]
peptides. (c) NMR chemical shift perturbation experiments carried out to detect potentially weak binding of 3TD to H3K14ac, H3K9me3 and unmodified H3. Weak binding of H3K14ac could be detected and the […]
H3 was observed. Panel a relates to Fig. 1, panels b and c to Fig. 2.
(1 picture or pasted object on this page, not shown here)

The subject of assay [2] is HEK293 cells. As to the kind of experiment: Far-western blot of 3TD binding to histones from HDAC inhibitor treated cells. In kind it is cell-based, human. The following applies: HEK293, 48 h, 0.4 mM TSA or 5 mM sodium butyrate, 100 nM GST-3TD. As to the method: Native histones were isolated by acid extraction[55] from HEK293 cells, and recombinant histone H3 was purchased from New England Biolabs. For the experiment with HDAC inhibitors, cells were treated for 48 h with 0.4 mM TSA or 5 mM sodium butyrate. Five micrograms of native histones and matching amount of recombinant H3 were electrophoresed on 18% SDS-PAGE and transferred onto nitrocellulose membranes. The membrane was then blocked in 5% milk in TBST and incubated with purified GST-tagged 3TD, followed by the anti-GST (GE Healtcare 27457701A, dilution 1:5000) and anti-goat antibody (Sigma A4174, dilution 1:10000). The amount of GST-fused Tudor protein used in western blot analyses was 100 nM. All experiments were performed in duplicates or triplicates. In the western blots, following antibodies were used: anti-K14ac (Millipore MABE351, dilution for checking specificity: 1:2000 or 1:1000; for western blot: 1:500), anti-H3K9me3 (Abcam ab8898, dilution 1:2000), anti-H3K9me2 (Abcam ab1220, dilution 1:1000), and anti-H3K4me3 (Abcam ab8580, dilution 1:2000). For specificity analysis of antibodies, see Supplementary Fig. 13. Secondary antibodies were anti-rabbit IgG HRP (GE Healtcare NA934, dilution 1:5000) and anti-mouse IgG HRP (GE Healtcare NXA931, dilution 1:5000). Native histone and nucleosome pull-down experiments were done at least in two biological repeats. […]

The test system of assay [3] is HEK293 cells. Kind of assay: Western blot of histone modifications after HDAC inhibitor treatment. The assay is classed as cell-based, human. The following applies: HEK293, 48 h, 0.4 mM TSA or 5 mM sodium butyrate; for K9 methylation content of H3 from treated cells: western blot anti-K9me; for H3K14ac signal of H3 from treated cells: western blot anti-K14ac. As to the method:
Native histones were isolated by acid extraction[55] from HEK293 cells, and recombinant histone H3 was purchased from New England Biolabs. For the experiment with HDAC inhibitors, cells were treated for 48 h with 0.4 mM TSA or 5 mM sodium butyrate. Five micrograms of native histones and matching amount of recombinant H3 were electrophoresed on 18% SDS-PAGE and transferred onto nitrocellulose membranes. The membrane was then blocked in 5% milk in TBST and incubated with purified GST-tagged 3TD, followed by the anti-GST (GE Healtcare 27457701A, dilution 1:5000) and anti-goat antibody (Sigma A4174, dilution 1:10000). The amount of GST-fused Tudor protein used in western blot analyses was 100 nM. All experiments were performed in duplicates or triplicates. In the western blots, following antibodies were used: anti-K14ac (Millipore MABE351, dilution for checking specificity: 1:2000 or 1:1000; for western blot: 1:500), anti-H3K9me3 (Abcam ab8898, dilution 1:2000), anti-H3K9me2 (Abcam ab1220, dilution 1:1000), and anti-H3K4me3 (Abcam ab8580, dilution 1:2000). For specificity analysis of antibodies, see Supplementary Fig. 13. Secondary antibodies were anti-rabbit IgG HRP (GE Healtcare NA934, dilution 1:5000) and anti-mouse IgG HRP (GE Healtcare NXA931, dilution 1:5000). Native histone and nucleosome pull-down experiments were done at least in two biological repeats. All antibodies were used following the manufacturer’s recommendations. Uncropped gel images are shown in Supplementary Fig. 14.

Turning to `CNCCCC[C@H](NC(=O)[C@H](CCCNC(=N)N)NC(=O)[C@H](C)NC(=O)[C@@H](NC(=O)[C@H](CCC(N)=O)NC(=O)[C@@H](N)CCCCN)[C@@H](C)O)C(=O)N[C@@H](CO)C(=O)N[C@H](C(=O)NCC(=O)NCC(=O)N[C@@H](CCCCNC(C)=O)C(=O)N[C@@H](C)C(=O)N1CCC[C@H]1C(=O)N[C@@H](CCCNC(=N)N)C(=O)N[C@@H](CCCCN)C(=O)N[C@@H](CCC(N)=O)C(=O)O)[C@@H](C)O` [H3K9me1/K14ac], the “loss of binding in ITC, W358A” value at SETDB1 3TD W358A (TD3) is listed as “completely lost”. Also, the “peptide array binding, 3TD” value in assay [1] is “strong and selective binding”. In the assay with SETDB1 3TD W358A, the “change of peptide array binding, W358A” value was “loss”. In the assay with SETDB1 3TD Y268A, the “change of binding, Y268A” value is on record as “not affected”.

On to `CC(=O)NCCCC[C@H](NC(=O)CNC(=O)CNC(=O)[C@@H](NC(=O)[C@H](CO)NC(=O)[C@H](CCCCN(C)C)NC(=O)[C@H](CCCNC(=N)N)NC(=O)[C@H](C)NC(=O)[C@@H](NC(=O)[C@H](CCC(N)=O)NC(=O)[C@@H](N)CCCCN)[C@@H](C)O)[C@@H](C)O)C(=O)N[C@@H](C)C(=O)N1CCC[C@H]1C(=O)N[C@@H](CCCNC(=N)N)C(=O)N[C@@H](CCCCN)C(=O)N[C@@H](CCC(N)=O)C(=O)O` [H3K9me2/K14ac], for which the “change of binding, F332A” value in the assay on SETDB1 3TD F332A is given as “strong reduction in affinity”. In addition, the “fold reduction of affinity, W358A” value on SETDB1 3TD W358A (TD3) came out at 18 fold. Further, the “peptide array binding, 3TD” value in [1] is “strong and selective binding”. In addition, in the assay with SETDB1 3TD W358A, the “change of peptide array binding, W358A” value is recorded as “strong reduction in binding”. Besides, the “change of binding, Y268A” value with SETDB1 3TD Y268A is recorded as “not affected”.

For `CC(=O)NCCCC[C@H](NC(=O)CNC(=O)CNC(=O)[C@@H](NC(=O)[C@H](CO)NC(=O)[C@H](CCCC[N+](C)(C)C)NC(=O)[C@H](CCCNC(=N)N)NC(=O)[C@H](C)NC(=O)[C@@H](NC(=O)[C@H](CCC(N)=O)NC(=O)[C@@H](N)CCCCN)[C@@H](C)O)[C@@H](C)O)C(=O)N[C@@H](C)C(=O)N1CCC[C@H]1C(=O)N[C@@H](CCCNC(=N)N)C(=O)N[C@@H](CCCCN)C(=O)N[C@@H](CCC(N)=O)C(=O)O` [H3K9me3/K14ac], the “fold reduction of affinity, W358A” value at SETDB1 3TD W358A (TD3) is on record as 2 fold. Further, the “relative binding affinity, Y268A” value at SETDB1 3TD Y268A (TD2) was “specific loss in binding”. Further, the “peptide array binding, 3TD” value in assay [1] is “strong and selective binding”. For the same compound, the “change of peptide array binding, W358A” value with SETDB1 3TD W358A is given as “only moderately reduced”. Besides, in the assay on SETDB1 3TD Y268A, the “change of binding, Y268A” value is reported as “clear reduction in affinity”.

With `C[C@H](NC(=O)[C@@H](NC(=O)[C@H](CCC(N)=O)NC(=O)[C@@H](N)CCCCN)[C@@H](C)O)C(=O)N[C@@H](CCCNC(=N)N)C(=O)N[C@@H](CCCC[N+](C)(C)C)C(=O)N[C@@H](CO)C(=O)N[C@H](C(=O)NCC(=O)NCC(=O)N[C@@H](CCCCN)C(=O)N[C@@H](C)C(=O)N1CCC[C@H]1C(=O)N[C@@H](CCCNC(=N)N)C(=O)N[C@@H](CCCCN)C(=O)N[C@@H](CCC(N)=O)C(=O)O)[C@@H](C)O` [H3K9me3], the “binding detected by NMR” value on SETDB1 3TD, wildtype was “no detectable binding”.

Regarding `CCCC(=O)[O-].[Na+]` [sodium butyrate], the “3TD binding to histones from treated cells” value in the assay on HEK293 cells [2] is given as “increased 3TD binding”. Besides, in the assay with HEK293 cells [3], the “K9 methylation content of H3 from treated cells” value is on record as “did not change” and the “H3K14ac signal of H3 from treated cells” value was “increased H3K14ac signal”.

Regarding `CC(/C=C/C(=O)NO)=C\[C@@H](C)C(=O)c1ccc(N(C)C)cc1` [trichostatin A], in the assay with HEK293 cells [2], the “3TD binding to histones from treated cells” value is on record as “increased 3TD binding”. Also, in the assay on HEK293 cells [3], the “K9 methylation content of H3 from treated cells” value was “did not change” and the “H3K14ac signal of H3 from treated cells” value was “increased H3K14ac signal”.
